T/C data for six molecules are collected here from PubChem BioAssay AID272 (DTP/NCI, 2004).

The experiment deals with Lewis lung carcinoma i.m., BDF1 mice, T/C %. Nature of the experiment: NCI In Vivo Anticancer Drug Screen. Data for tumor model Lewis Lung Carcinoma (intramuscular) in B6D2F1 (BDF1) mice. Here is the method:
The antitumor activity of compounds was measured in mice bearing transplantable tumors. Survival or tumor size were measured and the results are expressed as the measurement made in the treated group (T) divided by the measurement made in the vehicle treated control group (C). The tumor model used in this assay is Lewis Lung Carcinoma (intramuscular) in B6D2F1 (BDF1) mice

Setting [1] is: endpoint: median survival time, dose: 2.0 mg/kg/injection, schedule: Q01DX011 (ip), vehicle: saline, higher = longer survival.
Setting [2] is: endpoint: median survival time, dose: 4.0 mg/kg/injection, schedule: Q01DX011 (ip), vehicle: saline, higher = longer survival.
Setting [3] is: endpoint: median survival time, dose: 2.5 mg/kg/injection, schedule: Q01DX011 (ip), vehicle: saline, higher = longer survival.
Where [4] appears, read: endpoint: median survival time, dose: 5.0 mg/kg/injection, schedule: Q01DX011 (ip), vehicle: saline, higher = longer survival.
The mark [5] stands for this setting: endpoint: median survival time, dose: 10.0 mg/kg/injection, schedule: Q01DX011 (ip), vehicle: saline, higher = longer survival.
Setting [6] is: endpoint: mean tumor weight (est.), dose: 5.0 mg/kg/injection, schedule: Q01DX011 (ip), vehicle: saline, higher = larger tumour.

“And” between values parts separate entries of the source, which are not always exact repeats. Identical values can stand only once. Records with an inconclusive call do not appear.

Take `O=NN(CCCl)C(=O)NCCCl`: the T/C by setting is: (endpoint: mean tumor weight, dose: 1.5 mg/kg/injection, schedule: Q01DX011 (ip), vehicle: other, higher = larger tumour) 57 % of control; (endpoint: mean tumor weight, dose: 3.0 mg/kg/injection, schedule: Q01DX011 (ip), vehicle: other, higher = larger tumour) 47 % of control; (endpoint: mean tumor weight, dose: 6.0 mg/kg/injection, schedule: Q01DX011 (ip), vehicle: other, higher = larger tumour) 12 % of control; (endpoint: mean tumor weight, dose: 14.0 mg/kg/injection, schedule: Q01DX001 (sc), vehicle: saline, higher = larger tumour) 76 % of control; (endpoint: mean tumor weight, dose: 23.0 mg/kg/injection, schedule: Q01DX001 (sc), vehicle: saline, higher = larger tumour) 65 % of control; (endpoint: mean tumor weight, dose: 39.0 mg/kg/injection, schedule: Q01DX001 (sc), vehicle: saline, higher = larger tumour) 35 % of control. The T/C runs as follows: (endpoint: mean tumor weight, dose: 65.0 mg/kg/injection, schedule: Q01DX001 (sc), vehicle: saline, higher = larger tumour) 22 % of control; (endpoint: median survival time, dose: 1.0 mg/kg/injection, schedule: Q01DX009 (ip), vehicle: saline + alcohol, higher = longer survival) 113 % of control; (endpoint: median survival time, dose: 1.25 mg/kg/injection, schedule: Q01DX015 (ip), vehicle: saline, higher = longer survival) 108 % of control; (endpoint: median survival time, dose: 1.5 mg/kg/injection, schedule: Q01DX011 (ip), vehicle: other, higher = longer survival) 102 % of control; (endpoint: median survival time, dose: 1.5 mg/kg/injection, schedule: Q01DX011 (ip), vehicle: saline, higher = longer survival) 110 % of control; under setting [1], 97 % of control. The T/C is, setting by setting: (endpoint: median survival time, dose: 2.5 mg/kg/injection, schedule: Q01DX015 (ip), vehicle: saline, higher = longer survival) 124 % of control; (endpoint: median survival time, dose: 3.0 mg/kg/injection, schedule: Q01DX011 (ip), vehicle: other, higher = longer survival) 104 % of control; (endpoint: median survival time, dose: 4.0 mg/kg/injection, schedule: Q01DX009 (ip), vehicle: saline + alcohol, higher = longer survival) 113 % of control; under setting [2], 115 % of control; (endpoint: median survival time, dose: 5.0 mg/kg/injection, schedule: Q01DX001 (ip), vehicle: saline + alcohol, higher = longer survival) 107 % of control; (endpoint: median survival time, dose: 5.0 mg/kg/injection, schedule: Q01DX015 (ip), vehicle: saline, higher = longer survival) 111 % of control. Also, the T/C was 95 % of control (endpoint: median survival time, dose: 5.0 mg/kg/injection, schedule: Q07DX003 (ip), vehicle: saline, higher = longer survival); 167 % of control (endpoint: median survival time, dose: 5.0 mg/kg/injection, schedule: Q16DX002 (ip), vehicle: saline, higher = longer survival); 168 % of control (endpoint: median survival time, dose: 5.0 mg/kg/injection, schedule: Q## X002 (ip), vehicle: saline, higher = longer survival); 157 % of control (endpoint: median survival time, dose: 6.0 mg/kg/injection, schedule: Q01DX011 (ip), vehicle: saline, higher = longer survival); 102 % of control and 110 % of control (endpoint: median survival time, dose: 8.0 mg/kg/injection, schedule: Q01DX011 (ip), vehicle: saline, higher = longer survival); 158 % of control and 160 % of control (endpoint: median survival time, dose: 8.4 mg/kg/injection, schedule: Q01DX001 (ip), vehicle: saline, higher = longer survival). Further, the T/C was 105 % of control (endpoint: median survival time, dose: 8.4 mg/kg/injection, schedule: Q06DX002 (ip), vehicle: saline, higher = longer survival); 89 % of control (endpoint: median survival time, dose: 8.4 mg/kg/injection, schedule: Q16DX002 (ip), vehicle: saline, higher = longer survival); 87 % of control (endpoint: median survival time, dose: 8.4 mg/kg/injection, schedule: Q## X002 (ip), vehicle: saline, higher = longer survival); 111 % of control (endpoint: median survival time, dose: 10.0 mg/kg/injection, schedule: Q01DX001 (ip), vehicle: saline + alcohol, higher = longer survival); 94 % of control (endpoint: median survival time, dose: 10.0 mg/kg/injection, schedule: Q07DX003 (ip), vehicle: saline, higher = longer survival); 156 % of control and 157 % of control (endpoint: median survival time, dose: 14.0 mg/kg/injection, schedule: Q01DX001 (ip), vehicle: saline, higher = longer survival). Also, the T/C (endpoint: median survival time, dose: 14.0 mg/kg/injection, schedule: Q01DX001 (sc), vehicle: saline, higher = longer survival) was 112 % of control; the T/C (endpoint: median survival time, dose: 14.0 mg/kg/injection, schedule: Q06DX002 (ip), vehicle: saline, higher = longer survival) was 102 % of control; the T/C (endpoint: median survival time, dose: 14.0 mg/kg/injection, schedule: Q07DX003 (ip), vehicle: saline, higher = longer survival) was 102 % of control; the T/C (endpoint: median survival time, dose: 16.0 mg/kg/injection, schedule: Q01DX011 (ip), vehicle: saline, higher = longer survival) is 91 % of control; the T/C (endpoint: median survival time, dose: 20.0 mg/kg/injection, schedule: Q01DX001 (ip), vehicle: saline + alcohol, higher = longer survival) was 123 % of control; the T/C (endpoint: median survival time, dose: 20.0 mg/kg/injection, schedule: Q07DX003 (ip), vehicle: saline, higher = longer survival) is 111 % of control. The T/C by setting is: (endpoint: median survival time, dose: 23.0 mg/kg/injection, schedule: Q01DX001 (ip), vehicle: saline, higher = longer survival) 208 % of control and 210 % of control; (endpoint: median survival time, dose: 23.0 mg/kg/injection, schedule: Q06DX002 (ip), vehicle: saline, higher = longer survival) 109 % of control; (endpoint: median survival time, dose: 23.0 mg/kg/injection, schedule: Q07DX003 (ip), vehicle: saline, higher = longer survival) 108 % of control; (endpoint: median survival time, dose: 39.0 mg/kg/injection, schedule: Q01DX001 (ip), vehicle: saline, higher = longer survival) 216 % of control and 218 % of control; (endpoint: median survival time, dose: 39.0 mg/kg/injection, schedule: Q06DX002 (ip), vehicle: saline, higher = longer survival) 102 % of control; (endpoint: median survival time, dose: 39.0 mg/kg/injection, schedule: Q16DX002 (ip), vehicle: saline, higher = longer survival) 61 % of control and 101 % of control. Besides, the T/C (endpoint: median survival time, dose: 39.0 mg/kg/injection, schedule: Q## X002 (ip), vehicle: saline, higher = longer survival) is 104 % of control; the T/C (endpoint: median survival time, dose: 40.0 mg/kg/injection, schedule: Q01DX001 (ip), vehicle: saline + alcohol, higher = longer survival) was 64 % of control; the T/C (endpoint: median survival time, dose: 65.0 mg/kg/injection, schedule: Q01DX001 (ip), vehicle: saline, higher = longer survival) was 38 % of control; the T/C (endpoint: median survival time, dose: 65.0 mg/kg/injection, schedule: Q06DX002 (ip), vehicle: saline, higher = longer survival) is 45 % of control; the T/C (endpoint: median survival time, dose: 65.0 mg/kg/injection, schedule: Q16DX002 (ip), vehicle: saline, higher = longer survival) was 24 % of control.

In the case of `CC1(C)N=C(N)N=C(N)N1c1ccc(CCCCc2ccc(Cl)cc2Cl)cc1`, the T/C was 65 % of control (endpoint: mean tumor weight, dose: 1.25 mg/kg/injection, schedule: Q01DX011 (ip), vehicle: saline, higher = larger tumour); 71 % of control (endpoint: mean tumor weight, dose: 2.5 mg/kg/injection, schedule: Q01DX011 (ip), vehicle: saline, higher = larger tumour); 31 % of control (endpoint: mean tumor weight, dose: 5.0 mg/kg/injection, schedule: Q01DX011 (ip), vehicle: saline, higher = larger tumour); 65 % of control (endpoint: mean tumor weight, dose: 10.0 mg/kg/injection, schedule: Q01DX011 (ip), vehicle: saline, higher = larger tumour); 110 % of control (endpoint: median survival time, dose: 1.25 mg/kg/injection, schedule: Q01DX011 (ip), vehicle: saline, higher = longer survival); 93 % of control under setting [3]. Moreover, the T/C under setting [4] is 104 % of control and the T/C under setting [5] is 91 % of control.

As for `COc1cc([C@@H]2c3cc4c(cc3[C@@H](OC3OC5COC(C)OC5C(O)C3O)[C@H]3COC(=O)[C@H]23)OCO4)cc(OC)c1O` (some centres not stated), the T/C was 72 % of control (endpoint: mean tumor weight (est.), dose: 0.25 mg/kg/injection, schedule: Q01DX011 (ip), vehicle: saline, higher = larger tumour); 67 % of control (endpoint: mean tumor weight (est.), dose: 0.5 mg/kg/injection, schedule: Q01DX011 (ip), vehicle: saline, higher = larger tumour); 79 % of control (endpoint: mean tumor weight (est.), dose: 1.0 mg/kg/injection, schedule: Q01DX011 (ip), vehicle: saline, higher = larger tumour); 74 % of control (endpoint: mean tumor weight (est.), dose: 2.0 mg/kg/injection, schedule: Q01DX011 (ip), vehicle: saline, higher = larger tumour); 43 % of control (endpoint: mean tumor weight (est.), dose: 4.0 mg/kg/injection, schedule: Q01DX011 (ip), vehicle: saline, higher = larger tumour); 105 % of control under setting [6]. In addition, the T/C (endpoint: median survival time, dose: 0.25 mg/kg/injection, schedule: Q01DX011 (ip), vehicle: saline, higher = longer survival) was 96 % of control; the T/C (endpoint: median survival time, dose: 0.5 mg/kg/injection, schedule: Q01DX011 (ip), vehicle: saline, higher = longer survival) is 98 % of control; the T/C (endpoint: median survival time, dose: 1.0 mg/kg/injection, schedule: Q01DX011 (ip), vehicle: saline, higher = longer survival) is 96 % of control; the T/C under setting [1] is 107 % of control; the T/C under setting [2] was 101 % of control.

With `Cc1c2c(ccc3ccccc32)c[n+]2ccccc12`, the T/C was 60 % of control (endpoint: mean tumor weight (est.), dose: 2.5 mg/kg/injection, schedule: Q01DX011 (ip), vehicle: saline, higher = larger tumour); 112 % of control under setting [6]; 65 % of control (endpoint: mean tumor weight (est.), dose: 10.0 mg/kg/injection, schedule: Q01DX011 (ip), vehicle: saline, higher = larger tumour); 107 % of control under setting [3]; 92 % of control under setting [4]; 94 % of control under setting [5].

As to `CC(=O)c1ccc(Oc2ccc(/C(C)=N\N=C(N)N)cc2)cc1`, the T/C runs as follows: (endpoint: mean tumor weight (est.), dose: 12.5 mg/kg/injection, schedule: Q01DX011 (ip), vehicle: saline with Tween-80, higher = larger tumour) 66 % of control; (endpoint: mean tumor weight (est.), dose: 25.0 mg/kg/injection, schedule: Q01DX011 (ip), vehicle: saline with Tween-80, higher = larger tumour) 74 % of control; (endpoint: median survival time, dose: 12.5 mg/kg/injection, schedule: Q01DX011 (ip), vehicle: saline with Tween-80, higher = longer survival) 91 % of control.

`Nc1nc2n[nH]nc2c(=O)[nH]1`: the T/C (endpoint: mean tumor weight, dose: 25.0 mg/kg/injection, schedule: Q01DX011 (ip), vehicle: other, higher = larger tumour) is 81 % of control and the T/C (endpoint: mean tumor weight, dose: 100.0 mg/kg/injection, schedule: Q01DX011 (ip), vehicle: other, higher = larger tumour) is 64 % of control.
